# Reference: patent publication US7772425B2, “Vitamin D receptor modulators” (Eli Lilly and Company, priority 2002, dated 2010)
# Values joined by “and” are separate entries in the source; they are usually repeats but may differ in a detail not shown here. Identical values can stand only once. Like-named read-outs stand apart in the source and are kept apart here.
# Legend:
# rat osteocalcin promoter = test: OCN (osteocalcin) promoter assay in RG-15 (ROS 17/2.8) cells; format: cell-based; settings: 48 hr treatment, luciferase
# Procedure: 3. The OCN (Osteocalcin) Promoter Assay
# The OCN Promoter Assay is an indicator and marker for osteoporosis. […] Preferred assay results are less than 50 nM.
# (3) Materials and Method for The OCN Promoter Assay:
# The activation of osteocalcin by VDR ligands was evaluated in a rat osteoblast-like cell line RG-15 (ROS 17/2.8) stably expressing rat osteocalcin promoter fused with luciferase reporter gene. […] Confluent RG-15 cells maintained in DMEM/F-12 medium (3:1) containing 5% FBS, 300 μg/ml G418 and at 37° C. under 5% CO2/95% air atmosphere were trypsinized (0.25% trypsin) and plated into white opaque 96-well cell culture plates (25000 cells/well). After 24 hr, cells (in DMEM/F-12 medium+2% FBS) were treated with various concentrations of compounds, dissolved in DMSO. The final DMSO concentration remained at 0.01% (v/v). After 48 hr treatment, the medium was removed, cells were lysed with 50 μl of lysis buffer (From Luciferase reporter assay system, Roche Diagnostics, Indianapolis, Ind.) and assayed for luciferase activity using the Luciferase Reporter Gene Assay kit from Boehringer Mannheim as per manufacturer's specifications.
# female DBF mice = test: Mouse hypercalcemia assay; format: in vivo; settings: orally via gavage for 6 days; serum ionized calcium 6 hours after last dosing
# From the text: 4. The Mouse Hypercalcemia Assay
# (4) Materials and Method for The Mouse Hypercalcemia Assay: […]
# [1] = system: KERtr cells (Human skin keratinocyte); test: Keratinocyte proliferation assay; format: cell-based; settings: BrdU incorporation, read-out: Kera. Prolif. IC50
# Procedure: 5. The Keratinocyte Proliferation Assay
# This Assay is indicative for the treatment of psoriasis.
# (5) The Keratinocyte Proliferation Assay:
# KERtr cells (Human skin keratinocyte transformed with a retrovirus vector, obtained from ATCC) were plated in 96-well flat-bottomed plates (3000 cells/well) in 100 μl keratinocyte serum free medium supplemented with bovine pituitary extract in the absence of EGF (Life Technologies, Rockville, Md.) and incubated at 37° C. for two days. The cells were treated with various concentrations of VDR ligands (ten-fold serial dilution from 10,000 nM to 0.1 nM in triplicate), dissolved in 100 μl keratinocyte serum free medium supplemented with bovine pituitary extract in the absence of EGF and incubated at 37° C. for 72 hr. BrdU (5-bromo-2′-deoxyuridine) incorporation was analyzed as a measure of DNA replication (Cell proliferation ELISA kit, Roche Diagnostics, Indianapolis, Ind.) and absorbance was measured at 405 nm. Potency values (IC50) values were determined as the concentration (nM) of compound that elicited a half-maximal response.
# IL-10 = test: human IL-10 induction assay in PBMCs; format: cell-based; settings: TPA/PHA treated human PBMCs, IL-10 immunoassay of supernatant
# From the text: The evaluation of the novel compounds of the invention for psoriasis is done using the Keratinocyte Proliferation Assay in combination with other assays that measure inhibition of IL-2 production and stimulation of IL-10 production in peripheral blood mononuclear cells (PBMCs).
# 6. The IL-10 Induction Assay
# This is an in vitro efficacy assay for psoriasis, abscess and adhesion. Psoriasis involves both keratinocytes and immune cells. IL-10 is a unique cytokine because it is anti-inflammatory and immunosuppressive. This assay tells us whether a VDRM is able to function as an agonist in PBMCs (primary blood mononuclear cells) or not. A lower EC50 value is desirable in this assay since a compound with a lower EC50 value will be a better agonist in PBMCs.
# (6) Materials and Method for human IL-10 Induction Assay:
# Isolation of peripheral blood mononuclear cells (PBMCs):
# • A. Collect 50 ml of human blood and dilute with media, RPMI-1640. • B. Prepare sterile tubes with ficol. • C. Add diluted blood to tubes. • D. Centrifuge. • E. Discard the top layer and collect the cells from middle layer. • F. Divide all cells into four tubes and add media. • G. Centrifuge. • H. Aspirate off media and resuspend. • I. Collect all cells • J. Centrifuge. at 1200 rpm for 10 minutes. • K. Resuspend in RPMI-1640 with 2% FBS and count cells Stimulation of PBMC: • L. Prepare TPA in DMSO. • M. Dissolve PHA in water. • N. Plate TPA/PHA treated PBMCs in well plates. • O. Incubate. Treatment: • P. Prepare all compound dilutions in plain RPMI-1640 media. • Q. Add diluted compound. • R. Incubate. Sample Collection and assay: • S. Remove all the cells by centrifugation and assay the supernatant for IL-10 by immunoassay. • 1) T. Perform IL-10 assay using anti-human IL-10 antibody coated beads, as described by the manufacturer (Linco Research Inc., St. Charles, Mo.).
# [2] = Homo sapiens, Keratinocyte, 72 h
Structure (SMILES),EC50 (rat osteocalcin promoter),Mouse Hypercal (female DBF mice),"IC50 [1, 2]","IC50 (IL-10; Homo sapiens, PBMC)",IC50 ([1]; 72 hr),IC50 (IL-10),"EC50 (rat osteocalcin promoter; Rattus norvegicus, 48 h)"
"CCC(CC)(c1ccc(OC(C)C(O)C(C)(C)C)c(C)c1)c1ccc(C(=O)O)c(C)c1 (single isomer, unassigned) [Ex. 11, 3′-[4-(2-hydroxy-1,3,3-trimethylbutoxy)-3-methylphenyl]-3′-[4-carboxyl-3-methylphenyl]pentane]",7 nM,3000 µg/kg/day,308 nM,478 nM,–,–,–
"CCC(CC)(c1ccc(OCC(O)C(C)(C)C)c(C)c1)c1ccc(C(=O)Nc2nnn[nH]2)c(C)c1 (single isomer, unassigned) [Ex. 12a, 3′-[4-(2-hydroxy-3,3-dimethylbutoxy)-3-methylphenyl]-3′-[4-(tetrazol-5-ylaminocarbonyl)-3-methylphenyl]pentane]",1 nM,300 µg/kg/day,4 nM,52 nM,–,–,–
"CCC(CC)(c1ccc(OCC(O)C(C)(C)C)c(C)c1)c1ccc(C(=O)N(C)CC(=O)O)c(C)c1 (single isomer, unassigned) [Ex. 19, [(4-{1-Ethyl-1-[4-(2-hydroxy-3,3-dimethyl-butoxy)-3-methyl-phenyl]-propyl}-2-methyl-benzoyl)-methyl-amino]-acetic acid]",12 nM and 16 nM,2000 µg/kg/day,–,–,82 nM,142 nM,–
"CCC(CC)(c1ccc(OCC(O)C(C)(C)C)c(C)c1)c1ccc(C(=O)NCC(=O)O)c(C)c1 (single isomer, unassigned) [Ex. 25A, (4-{1-ethyl-1-[4-(2-hydroxy-3,3-dimethylbutoxy)-3-methylphenyl]-propyl}-2-methylbenzoylamino)acetic acid]",0.4 nM,<300 µg/kg/day,–,–,1100 nM,40 nM,–
"CCC(CC)(c1ccc(OCC(O)C(C)(C)C)c(C)c1)c1ccc(C(=O)NCC(=O)O)c(C)c1 (single isomer, unassigned) [Ex. 25B, (4-{1-ethyl-1-[4-(2-hydroxy-3,3-dimethylbutoxy)-3-methylphenyl]-propyl}-2-methylbenzoylamino)acetic acid]",2 nM and 3 nM,1000 µg/kg/day,–,–,26 nM,158 nM,–
"CCC(CC)(c1ccc(OCC(O)C(C)(C)C)c(C)c1)c1ccc(C(=O)Nc2nnn[nH]2)c(C)c1 (single isomer, unassigned) [Ex. 26, 3′-[4-(2-hydroxy-3,3-dimethylbutoxy)-3-methylphenyl]-3′-[4-(tetrazol-5-ylaminocarbonyl)-3-methylphenyl]pentane]",1 nM,300 µg/kg/day,–,–,4 nM,52 nM,–
"CCC(CC)(c1ccc(OC(C)C(O)C(C)(C)C)c(C)c1)c1ccc(C(=O)NCC(=O)O)c(C)c1 (single isomer, unassigned) [Ex. 31, 3′-[4-(2-hydroxy-1,3,3-trimethylbutoxy)-3-methylphenyl]-3′-[4-(carboxymethylaminocarbonyl)-3-methylphenyl]pentane]",1 nM,3000 µg/kg/day,–,–,21 nM,295 nM,–
"CCC(CC)(c1ccc(COCC(=O)O)c(C)c1)c1ccc(OCC(O)C(C)(C)C)c(C)c1 (single isomer, unassigned) [Ex. 33, (4-{1-ethyl-1-[4-(2-hydroxy-3,3-dimethyl-butoxy)-3-methyl-phenyl]-propyl}-2-methyl-benzyloxy)-acetic acid]",–,<300 µg/kg/day,6 nM,19 nM,–,–,–
"CCC(CC)(c1ccc(C(=O)O)cc1)c1ccc(OCC(O)C(C)(C)C)c(Cl)c1 (single isomer, unassigned) [Ex. 37, 3′-[3-chloro-4-(2-hydroxy-3,3-dimethylbutoxy)phenyl]-3′-[4-carboxyphenyl]pentane]",12 nM,1000 µg/kg/day,–,229 nM,55 nM,–,–
"CCC(CC)(c1ccc(-c2nnn[nH]2)cc1)c1ccc(OCC(O)C(C)(C)C)c(C)c1 (single isomer, unassigned) [Ex. 44, 1-(4-{1-Ethyl-1-[4-(1H-tetrazol-5-yl)-phenyl]-propyl}-2-methyl-phenoxy)-3,3-dimethyl-butan-2-ol]",0.1 nM,<300 µg/kg/day,28 nM,–,–,6 nM,–
"CCC(CC)(c1ccc(-c2nnn[nH]2)cc1)c1ccc(OCC(O)C(C)(C)C)c(C)c1 (single isomer, unassigned) [Ex. 45, 1-(4-{1-Ethyl-1-[4-(1H-tetrazol-5-yl)-phenyl]-propyl}-2-methyl-phenoxy)-3,3-dimethyl-butan-2-ol]",0.7 nM,300 µg/kg/day,–,–,32 nM,15 nM,–
"CCC(CC)(c1ccc(CC2SC(=O)NC2=O)c(C)c1)c1ccc(OCC(O)C(C)(C)C)c(C)c1 (single isomer, unassigned) [Ex. 50, 5-(4-{1-ethyl-1-[4-(2-hydroxy-3,3-dimethyl-butoxy)-3-methyl-phenyl]-propyl}-2-methyl-benzyl)-thiazolidine-2,4-dione]",0.2 nM,300 µg/kg/day,–,–,3 nM,4 nM,–
"CCC(CC)(c1ccc(CC2SC(=O)NC2=O)c(C)c1)c1ccc(OCC(O)C(C)(C)C)c(C)c1 (single isomer, unassigned) [Ex. 51, 5-(4-{1-ethyl-1-[4-(2-hydroxy-3,3-dimethyl-butoxy)-3-methyl-phenyl]-propyl}-2-methyl-benzyl)-thiazolidine-2,4-dione]",1.4 nM,300 µg/kg/day,–,–,26 nM,19 nM,–
"CCC(CC)(c1ccc(OC(C)C(O)C(C)(C)C)c(C)c1)c1ccc(C(=O)N(C)CC(=O)O)c(C)c1 (single isomer, unassigned) [Ex. 52, [(4-{1-Ethyl-1-[4-(2-hydroxy-1,3,3-trimethyl-butoxy)-3-methyl-phenyl]-propyl}-2-methyl-benzoyl)-methyl-amino]-acetic acid]",4 nM,>3000 µg/kg/day,–,154 nM,52 nM,–,–
"CCC(CC)(c1ccc(CCC(=O)O)c(C)c1)c1ccc(OCC(=O)C(C)(C)C)c(C)c1 [Ex 6, 3′-[4-(2-oxo-3,3-dimethylbutoxy)-3-methylphenyl]-3′-[4-(2-carboxylethyl)-3-methylphenyl]pentane]",–,10 µg/kg/day,2 nM,55 nM,–,–,0.3 nM
"CCC(CC)(c1ccc(C(=O)O)cc1)c1ccc(OCC(=O)C(C)(C)C)c(C)c1 [Ex. 21, 4-{1-[4-(3,3-Dimethyl-2-oxo-butoxy)-3-methyl-phenyl]-1-ethyl-propyl}-benzoic acid]",–,6000 µg/kg/day,223 nM,1050 nM,–,–,–
"CCC(CC)(c1ccc(OCC(O)C(C)(C)C)c(C)c1)c1ccc(C(=O)N[C@H](C)C(=O)O)c(C)c1 (stereo partly drawn) [Ex. 34, D-2-(4-{1-ethyl-1-[4-(2-hydroxy-3,3-dimethyl-butoxy)-3-methyl-phenyl]-propyl}-2-methyl-benzoylamino)-propionic acid]",–,<300 µg/kg/day,25 nM,45 nM,–,–,–
